According to the kinase profiling compilation of Christmann-Franck et al. (2016):

Columns and labels:
Experiment in all cases: KINOMEscan competition binding
Settings in all cases: compound 10.0 µM
[1] = molecular target: TEK (human) (UniProt Q02763)
[2] = molecular target: CDKL1 (human) (UniProt Q00532)
[3] = molecular target: MAP3K2 (human) (UniProt Q9Y2U5)
[4] = molecular target: MAP2K3 (human) (UniProt P46734)
[5] = molecular target: INSRR (human) (UniProt P14616)
[6] = molecular target: HUNK (human) (UniProt P57058)
[7] = molecular target: PRKAA1 (human) (UniProt Q13131)
PRKAA1 (human), sequence (Q13131 whole entry, looked up): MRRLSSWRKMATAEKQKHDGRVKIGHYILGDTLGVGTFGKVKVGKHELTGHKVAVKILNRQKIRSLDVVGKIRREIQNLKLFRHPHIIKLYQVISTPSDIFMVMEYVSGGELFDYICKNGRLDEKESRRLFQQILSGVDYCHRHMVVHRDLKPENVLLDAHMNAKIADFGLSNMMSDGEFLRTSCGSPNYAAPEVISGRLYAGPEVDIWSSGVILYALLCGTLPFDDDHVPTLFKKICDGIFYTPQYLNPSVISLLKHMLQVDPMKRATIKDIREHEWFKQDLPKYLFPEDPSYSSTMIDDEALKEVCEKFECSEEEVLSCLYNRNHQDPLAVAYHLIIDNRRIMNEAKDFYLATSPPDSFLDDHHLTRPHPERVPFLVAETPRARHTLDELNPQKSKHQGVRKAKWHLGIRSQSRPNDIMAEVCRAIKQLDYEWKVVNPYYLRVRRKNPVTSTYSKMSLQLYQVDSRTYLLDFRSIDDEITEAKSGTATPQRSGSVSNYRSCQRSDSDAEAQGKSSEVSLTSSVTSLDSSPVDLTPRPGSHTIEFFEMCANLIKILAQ

[8] = molecular target: DAPK3 (human) (UniProt O43293)
DAPK3 (human), sequence (O43293 whole entry, looked up): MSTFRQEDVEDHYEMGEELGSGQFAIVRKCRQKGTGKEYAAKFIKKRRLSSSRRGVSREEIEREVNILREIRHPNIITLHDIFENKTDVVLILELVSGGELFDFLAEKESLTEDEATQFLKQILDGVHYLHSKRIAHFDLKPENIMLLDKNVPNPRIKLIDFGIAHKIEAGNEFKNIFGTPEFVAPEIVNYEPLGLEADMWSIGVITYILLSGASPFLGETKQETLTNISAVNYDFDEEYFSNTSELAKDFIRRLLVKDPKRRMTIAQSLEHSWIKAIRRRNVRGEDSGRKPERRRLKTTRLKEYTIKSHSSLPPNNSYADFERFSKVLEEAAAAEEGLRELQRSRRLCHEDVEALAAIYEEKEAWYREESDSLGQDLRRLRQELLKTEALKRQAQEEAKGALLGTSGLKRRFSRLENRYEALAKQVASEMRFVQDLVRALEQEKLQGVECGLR

[9] = molecular target: GSK3B (human) (UniProt P49841)
GSK3B (human), sequence (P49841 whole entry, looked up): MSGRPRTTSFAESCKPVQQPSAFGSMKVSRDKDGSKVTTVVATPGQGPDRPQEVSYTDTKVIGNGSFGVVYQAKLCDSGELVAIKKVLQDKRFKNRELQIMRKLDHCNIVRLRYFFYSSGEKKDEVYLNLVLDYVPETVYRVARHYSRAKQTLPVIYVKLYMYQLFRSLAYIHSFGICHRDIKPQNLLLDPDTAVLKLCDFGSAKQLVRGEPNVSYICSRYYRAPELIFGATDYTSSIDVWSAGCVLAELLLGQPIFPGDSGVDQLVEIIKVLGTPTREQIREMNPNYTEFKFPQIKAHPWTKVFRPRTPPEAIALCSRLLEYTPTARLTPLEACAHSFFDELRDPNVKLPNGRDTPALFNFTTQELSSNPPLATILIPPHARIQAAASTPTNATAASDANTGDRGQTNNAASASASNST

[10] = molecular target: CRK2 (P.falciparum) (UniProt P61075)
[11] = molecular target: LIMK2 (human) (UniProt P53671)
[12] = molecular target: PTK2 (human) (UniProt Q05397)
[13] = molecular target: RIPK1 (human) (UniProt Q13546)
[14] = molecular target: NEK9 (human) (UniProt Q8TD19)
[15] = molecular target: SGK110 (human) (UniProt P0C264)
SGK110 (human), sequence (P0C264 whole entry, looked up): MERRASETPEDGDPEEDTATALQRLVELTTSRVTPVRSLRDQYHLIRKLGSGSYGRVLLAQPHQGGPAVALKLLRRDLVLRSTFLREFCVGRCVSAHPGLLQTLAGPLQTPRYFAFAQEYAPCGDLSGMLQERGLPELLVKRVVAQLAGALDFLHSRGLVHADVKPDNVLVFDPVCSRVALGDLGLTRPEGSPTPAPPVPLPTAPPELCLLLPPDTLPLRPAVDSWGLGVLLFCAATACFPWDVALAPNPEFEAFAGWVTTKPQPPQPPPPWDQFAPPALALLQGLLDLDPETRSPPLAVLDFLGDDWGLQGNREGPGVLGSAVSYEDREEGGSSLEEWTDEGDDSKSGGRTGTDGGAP

[16] = molecular target: MAPK6 (human) (UniProt Q16659)
MAPK6 (human), sequence (Q16659 whole entry, looked up): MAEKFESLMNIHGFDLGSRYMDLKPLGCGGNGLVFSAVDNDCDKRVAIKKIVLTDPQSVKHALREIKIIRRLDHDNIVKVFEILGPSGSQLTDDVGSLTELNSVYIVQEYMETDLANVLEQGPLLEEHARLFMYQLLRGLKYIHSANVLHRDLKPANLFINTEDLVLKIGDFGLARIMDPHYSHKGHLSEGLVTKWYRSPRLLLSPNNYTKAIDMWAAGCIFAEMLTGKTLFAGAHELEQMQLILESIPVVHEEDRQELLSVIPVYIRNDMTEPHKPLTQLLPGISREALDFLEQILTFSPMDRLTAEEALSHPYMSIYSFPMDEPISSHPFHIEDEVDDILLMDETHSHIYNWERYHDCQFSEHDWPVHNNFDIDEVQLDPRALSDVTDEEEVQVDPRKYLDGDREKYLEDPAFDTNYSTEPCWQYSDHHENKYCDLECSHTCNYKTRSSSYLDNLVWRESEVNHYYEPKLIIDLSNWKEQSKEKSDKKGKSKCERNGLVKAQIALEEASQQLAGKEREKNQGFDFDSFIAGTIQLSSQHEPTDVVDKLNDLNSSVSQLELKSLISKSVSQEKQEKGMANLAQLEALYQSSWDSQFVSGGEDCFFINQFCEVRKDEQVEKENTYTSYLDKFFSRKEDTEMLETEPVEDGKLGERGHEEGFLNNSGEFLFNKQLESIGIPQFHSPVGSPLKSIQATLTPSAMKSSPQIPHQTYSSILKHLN

[17] = molecular target: BMPR2 (human) (UniProt Q13873)
[18] = molecular target: SGK3 (human) (UniProt Q96BR1)
[19] = molecular target: TTK (human) (UniProt P33981)
[20] = molecular target: MERTK (human) (UniProt Q12866)
[21] = system: KIT (human), P10721 [V559D]
[22] = system: RET (human), P07949 [M918T]
[23] = molecular target: CDK4 CCND1 (human) (UniProt P11802+P24385)
[24] = molecular target: CAMK2D (human) (UniProt Q13557)
CAMK2D (human), sequence (Q13557 whole entry, looked up): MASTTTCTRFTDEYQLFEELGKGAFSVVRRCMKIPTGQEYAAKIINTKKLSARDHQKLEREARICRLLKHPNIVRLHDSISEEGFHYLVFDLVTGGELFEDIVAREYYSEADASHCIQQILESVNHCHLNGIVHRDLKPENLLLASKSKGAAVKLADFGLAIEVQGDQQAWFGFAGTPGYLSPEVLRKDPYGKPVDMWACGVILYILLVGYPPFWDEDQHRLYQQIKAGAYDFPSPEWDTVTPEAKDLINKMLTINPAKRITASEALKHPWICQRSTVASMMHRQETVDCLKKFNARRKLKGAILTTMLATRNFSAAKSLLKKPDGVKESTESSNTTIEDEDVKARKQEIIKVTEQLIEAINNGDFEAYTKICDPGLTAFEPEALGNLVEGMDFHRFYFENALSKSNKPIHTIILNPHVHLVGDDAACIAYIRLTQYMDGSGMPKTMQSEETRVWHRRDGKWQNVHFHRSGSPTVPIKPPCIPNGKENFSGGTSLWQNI

[25] = molecular target: MAPK15 (human) (UniProt Q8TD08)
[26] = molecular target: CDKL3 (human) (UniProt Q8IVW4)
[27] = molecular target: MYO3B (human) (UniProt Q8WXR4)
[28] = molecular target: INSR (human) (UniProt P06213)
[29] = molecular target: TAOK3 (human) (UniProt Q9H2K8)
[30] = molecular target: MAP4K2 (human) (UniProt Q12851)
[31] = molecular target: CHEK2 (human) (UniProt O96017)
[32] = molecular target: PRKD2 (human) (UniProt Q9BZL6)
[33] = molecular target: ERBB2 (human) (UniProt P04626)
[34] = molecular target: YSK4 (human) (UniProt Q56UN5)
YSK4 (human), sequence (Q56UN5 whole entry, looked up): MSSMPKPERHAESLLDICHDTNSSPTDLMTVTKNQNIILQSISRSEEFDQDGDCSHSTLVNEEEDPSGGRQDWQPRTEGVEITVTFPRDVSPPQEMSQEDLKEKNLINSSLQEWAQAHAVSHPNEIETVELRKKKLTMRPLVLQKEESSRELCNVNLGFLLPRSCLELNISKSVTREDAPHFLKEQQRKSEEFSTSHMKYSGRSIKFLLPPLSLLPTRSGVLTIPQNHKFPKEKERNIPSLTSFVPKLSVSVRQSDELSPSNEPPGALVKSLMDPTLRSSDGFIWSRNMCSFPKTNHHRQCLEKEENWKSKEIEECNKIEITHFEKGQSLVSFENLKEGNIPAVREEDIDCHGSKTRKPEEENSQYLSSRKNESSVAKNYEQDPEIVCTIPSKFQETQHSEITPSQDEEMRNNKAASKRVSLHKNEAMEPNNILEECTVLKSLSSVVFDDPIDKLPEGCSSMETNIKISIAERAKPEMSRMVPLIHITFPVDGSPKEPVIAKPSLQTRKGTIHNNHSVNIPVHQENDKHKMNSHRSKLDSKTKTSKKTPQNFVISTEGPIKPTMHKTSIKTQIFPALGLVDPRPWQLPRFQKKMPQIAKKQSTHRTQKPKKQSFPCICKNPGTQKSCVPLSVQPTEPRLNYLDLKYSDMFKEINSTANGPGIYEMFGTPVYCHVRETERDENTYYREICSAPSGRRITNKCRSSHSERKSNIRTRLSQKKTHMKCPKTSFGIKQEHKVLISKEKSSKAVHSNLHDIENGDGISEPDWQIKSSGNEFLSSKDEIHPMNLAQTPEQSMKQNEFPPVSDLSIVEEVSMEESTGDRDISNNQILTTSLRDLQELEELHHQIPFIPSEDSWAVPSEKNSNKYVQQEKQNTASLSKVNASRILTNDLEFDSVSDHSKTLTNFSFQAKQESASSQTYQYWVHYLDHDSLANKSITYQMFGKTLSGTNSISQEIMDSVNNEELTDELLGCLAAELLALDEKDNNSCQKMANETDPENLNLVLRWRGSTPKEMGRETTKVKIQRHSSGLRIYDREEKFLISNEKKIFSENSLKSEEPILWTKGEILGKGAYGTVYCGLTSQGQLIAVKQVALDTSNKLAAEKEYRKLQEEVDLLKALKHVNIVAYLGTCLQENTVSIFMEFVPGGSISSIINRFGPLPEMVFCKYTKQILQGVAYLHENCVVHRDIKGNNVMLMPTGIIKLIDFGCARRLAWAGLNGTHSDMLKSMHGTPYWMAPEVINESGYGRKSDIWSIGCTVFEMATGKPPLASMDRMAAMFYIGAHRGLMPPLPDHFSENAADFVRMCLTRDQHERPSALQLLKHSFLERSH

[35] = molecular target: SRPK3 (human) (UniProt Q9UPE1)
[36] = system: PIK3CA (human), P42336 [E545K]
[37] = molecular target: PHKG1 (human) (UniProt Q16816)
[38] = molecular target: CSNK2A2 (human) (UniProt P19784)
[39] = molecular target: ERN1 (human) (UniProt O75460)
[40] = molecular target: PIK3C2G (human) (UniProt O75747)
[41] = molecular target: DCLK3 (human) (UniProt Q9C098)
DCLK3 (human), sequence (Q9C098 whole entry, looked up): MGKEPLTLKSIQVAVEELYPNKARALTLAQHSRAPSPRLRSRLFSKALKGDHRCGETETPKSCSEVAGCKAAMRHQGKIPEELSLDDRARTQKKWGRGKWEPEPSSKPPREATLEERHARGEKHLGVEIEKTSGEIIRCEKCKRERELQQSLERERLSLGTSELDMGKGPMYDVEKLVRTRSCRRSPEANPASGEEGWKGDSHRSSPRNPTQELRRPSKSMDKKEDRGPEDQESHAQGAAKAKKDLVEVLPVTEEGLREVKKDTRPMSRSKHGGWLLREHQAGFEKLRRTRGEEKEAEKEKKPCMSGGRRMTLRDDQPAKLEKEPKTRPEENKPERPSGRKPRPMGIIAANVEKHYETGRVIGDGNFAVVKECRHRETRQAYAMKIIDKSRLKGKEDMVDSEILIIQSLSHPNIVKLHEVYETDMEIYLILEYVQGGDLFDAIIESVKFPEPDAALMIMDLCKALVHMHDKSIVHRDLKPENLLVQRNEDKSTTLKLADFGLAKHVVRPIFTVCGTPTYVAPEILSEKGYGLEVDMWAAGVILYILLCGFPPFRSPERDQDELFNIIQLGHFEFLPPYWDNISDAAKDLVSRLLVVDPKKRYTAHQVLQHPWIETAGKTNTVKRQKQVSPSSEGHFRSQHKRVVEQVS

COC(=O)Nc1ccc(-c2nc(N3CCOCC3)c3cnn(C4CCN(C(=O)OC)CC4)c3n2)cc1
kinase still bound, per cent of control [1]: 100%
per cent of control [2]: 91%
kinase still bound, per cent of control [3]: 89%
kinase still bound, per cent of control [4]: 95%
kinase still bound, per cent of control [5]: 100%
kinase still bound, per cent of control [6]: 95%
kinase still bound, per cent of control [7]: 100%
kinase still bound, per cent of control [8]: 92%
kinase still bound, per cent of control [9]: 100%
kinase still bound, per cent of control [10]: 95%
kinase still bound, per cent of control [11]: 94%
kinase still bound, per cent of control [12]: 94%
kinase still bound, per cent of control [13]: 100%
kinase still bound, per cent of control [14]: 98%
kinase still bound, per cent of control [15]: 92%
kinase still bound, per cent of control [16]: 100%
kinase still bound, per cent of control [17]: 92%
kinase still bound, per cent of control [18]: 99%
kinase still bound, per cent of control [19]: 100%
kinase still bound, per cent of control [20]: 100%
kinase still bound, per cent of control [21]: 96%
kinase still bound, per cent of control [22]: 87%
per cent of control [23]: 100%
kinase still bound, per cent of control [24]: 100%
kinase still bound, per cent of control [25]: 100%
per cent of control [26]: 64%
kinase still bound, per cent of control [27]: 97%
kinase still bound, per cent of control [28]: 72%
kinase still bound, per cent of control [29]: 94%
kinase still bound, per cent of control [30]: 100%
kinase still bound, per cent of control [31]: 100%
kinase still bound, per cent of control [32]: 100%
kinase still bound, per cent of control [33]: 100%
kinase still bound, per cent of control [34]: 75%
kinase still bound, per cent of control [35]: 100%
kinase still bound, per cent of control [36]: 4.9%
kinase still bound, per cent of control [37]: 81%
kinase still bound, per cent of control [38]: 83%
kinase still bound, per cent of control [39]: 100%
kinase still bound, per cent of control [40]: 24%
kinase still bound, per cent of control [41]: 92%
